Source: ChEMBL document CHEMBL5257031, “Drug-like Antagonists of P2Y Receptors-From Lead Identification to Drug Development” (J Med Chem, 2016)

Legend:
[1] = Half life in rat 1 mg/kg, iv; format: ADME, organism-based; details: in vivo
[2] = Clearance in rat at 30 mg/kg, po; format: ADME, organism-based; details: in vivo
[3] = Half life in rat 30 mg/kg, po; format: ADME, organism-based; details: in vivo
[4] = Volume of distribution at steady state in rat at 30 mg/kg, PO; format: ADME, organism-based; details: in vivo
[5] = Cmax in rat measured up to 24 hrs; format: ADME; design: time < 24 hrs; details: in vivo
[6] = Cmax in mouse measured up to 24 hrs; format: ADME; design: time < 24 hrs; details: in vivo
[7] = Oral bioavailability in mouse; details: in vivo
in vivo = details: mouse, po
[8] = Binding affinity to chimpanzee P2Y14 assessed as inhibition constant; design: species or system Pan troglodytes
[9] = Antagonist activity at ATP gamma S induced mucin in Normal human bronchial epithelial cell; format: cell-based
P2Y purinoceptor 1 [10] = target: T1, P2Y purinoceptor 1 (Homo sapiens, UniProt P47900); test: Inhibition of human P2Y1 assessed as inhibition constant
P2Y purinoceptor 2 = P2Y purinoceptor 2 (Mus musculus, UniProt P35383); test: Antagonist activity at mouse P2Y2
[11] = Antagonist activity at P2Y14 using UDP-Glc as substrate
[12] = Half life in C57BL/6 mouse 2 mg/kg, iv; format: ADME, organism-based; details: in vivo
[13] = Half life in C57BL/6 mouse 2 mg/kg, iv; details: in vivo
[14] = Oral bioavailability in C57BL/6 mouse at 50 mg/kg; details: in vivo
P2Y purinoceptor 1 [15] = target: T1, P2Y purinoceptor 1; test: Agonist activity at human P2Y1
P2Y purinoceptor 1 [16] = target: T1, P2Y purinoceptor 1; test: Inhibition of human P2Y1
P2Y purinoceptor 6 = P2Y purinoceptor 6 (Homo sapiens, UniProt Q15077); test: Antagonist activity at human P2Y6
[17] = Clearance in rat; format: ADME; details: in vivo
[18] = Volume of distribution at steady state in rat; format: ADME; details: in vivo
P2Y purinoceptor 4 [19] = target: T2, P2Y purinoceptor 4 (Homo sapiens, UniProt P51582); test: Agonist activity at human P2Y4 transfected in human 1321N1 cells; format: cell-based
P2Y purinoceptor 12 [20] = target: T3, P2Y purinoceptor 12 (Homo sapiens, UniProt Q9H244); test: Displacement of [3H]-2-MeS-ADP from human P2Y12 assessed as inhibition constant incubated for 30 mins
P2Y purinoceptor 13 [21] = target: T4, P2Y purinoceptor 13 (Homo sapiens, UniProt Q9BPV8); test: Antagonist activity at P2Y13 (unknown origin)
T4 sequence (Q9BPV8 whole entry): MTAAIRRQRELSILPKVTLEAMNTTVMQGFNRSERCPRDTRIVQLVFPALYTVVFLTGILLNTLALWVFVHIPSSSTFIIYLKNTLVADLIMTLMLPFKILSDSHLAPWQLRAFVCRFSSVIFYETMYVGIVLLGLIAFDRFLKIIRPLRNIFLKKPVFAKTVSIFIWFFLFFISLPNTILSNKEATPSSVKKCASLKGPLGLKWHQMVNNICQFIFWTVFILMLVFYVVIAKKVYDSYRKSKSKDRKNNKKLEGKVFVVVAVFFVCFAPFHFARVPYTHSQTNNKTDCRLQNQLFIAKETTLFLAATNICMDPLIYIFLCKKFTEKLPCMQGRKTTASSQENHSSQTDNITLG

P2Y purinoceptor 4 [22] = target: T2, P2Y purinoceptor 4
P2Y purinoceptor 4 [23] = target: P2Y purinoceptor 4 (Rattus norvegicus, UniProt O35811); test: Agonist activity at rat P2Y4
P2Y purinoceptor 13 [24] = target: T4, P2Y purinoceptor 13; test: Antagonist activity at human P2Y13
P2Y purinoceptor 12 [25] = target: T3, P2Y purinoceptor 12; test: Antagonist activity at human P2Y12
[26] = target: P2Y purinoceptor 4 (Rattus norvegicus) (UniProt O35811); test: Agonist activity at rat P2Y4 transfected in human 1321N1 cells at 100 uM relative to control; format: cell-based
P2Y purinoceptor 4 [27] = target: T2, P2Y purinoceptor 4; test: Agonist activity at human P2Y4 transfected in human 1321N1 cells at 100 uM relative to control; format: cell-based
[28] = Antagonist activity at human P2Y12 by aggregation assay
P2Y purinoceptor 14 [29] = target: T5, P2Y purinoceptor 14 (Homo sapiens, UniProt Q15391); test: Antagonist activity at human P2Y14 expressed in CHO cells assessed as inhibition constant; format: cell-based
T5 sequence (Q15391 whole entry): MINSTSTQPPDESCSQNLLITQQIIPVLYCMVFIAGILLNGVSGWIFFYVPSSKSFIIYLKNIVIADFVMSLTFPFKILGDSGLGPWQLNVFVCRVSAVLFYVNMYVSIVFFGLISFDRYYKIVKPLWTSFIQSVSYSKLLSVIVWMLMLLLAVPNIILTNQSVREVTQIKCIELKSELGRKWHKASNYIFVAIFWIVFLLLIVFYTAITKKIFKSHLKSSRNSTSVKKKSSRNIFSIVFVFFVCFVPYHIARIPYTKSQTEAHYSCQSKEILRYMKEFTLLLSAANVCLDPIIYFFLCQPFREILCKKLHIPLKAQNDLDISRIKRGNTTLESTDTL

P2Y purinoceptor 14 [30] = target: T6, P2Y purinoceptor 14 (Rattus norvegicus, UniProt O35881); test: Antagonist activity at rat P2Y14
T6 sequence (O35881 whole entry): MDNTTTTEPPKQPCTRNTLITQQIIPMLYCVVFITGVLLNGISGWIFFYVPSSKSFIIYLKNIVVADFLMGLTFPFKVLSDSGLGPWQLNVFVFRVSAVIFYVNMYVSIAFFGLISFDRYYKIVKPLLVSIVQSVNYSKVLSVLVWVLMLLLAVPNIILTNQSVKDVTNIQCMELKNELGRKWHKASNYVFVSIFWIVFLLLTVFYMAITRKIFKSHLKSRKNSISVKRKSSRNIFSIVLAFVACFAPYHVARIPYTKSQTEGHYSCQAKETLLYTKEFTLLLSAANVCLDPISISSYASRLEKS

[31] = Antagonist activity at human pA2 by FLIPR assay

T3 sequence (Q9H244 whole entry): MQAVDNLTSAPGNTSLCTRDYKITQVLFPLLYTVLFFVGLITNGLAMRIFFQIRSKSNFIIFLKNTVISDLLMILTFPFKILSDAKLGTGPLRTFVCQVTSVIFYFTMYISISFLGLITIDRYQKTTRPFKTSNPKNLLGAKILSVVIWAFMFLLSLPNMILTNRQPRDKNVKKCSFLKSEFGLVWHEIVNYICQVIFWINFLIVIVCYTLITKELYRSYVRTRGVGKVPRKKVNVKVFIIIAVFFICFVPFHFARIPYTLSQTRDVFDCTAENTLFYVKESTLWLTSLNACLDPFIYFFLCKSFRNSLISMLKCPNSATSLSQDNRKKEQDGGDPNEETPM
T1 sequence (P47900 whole entry): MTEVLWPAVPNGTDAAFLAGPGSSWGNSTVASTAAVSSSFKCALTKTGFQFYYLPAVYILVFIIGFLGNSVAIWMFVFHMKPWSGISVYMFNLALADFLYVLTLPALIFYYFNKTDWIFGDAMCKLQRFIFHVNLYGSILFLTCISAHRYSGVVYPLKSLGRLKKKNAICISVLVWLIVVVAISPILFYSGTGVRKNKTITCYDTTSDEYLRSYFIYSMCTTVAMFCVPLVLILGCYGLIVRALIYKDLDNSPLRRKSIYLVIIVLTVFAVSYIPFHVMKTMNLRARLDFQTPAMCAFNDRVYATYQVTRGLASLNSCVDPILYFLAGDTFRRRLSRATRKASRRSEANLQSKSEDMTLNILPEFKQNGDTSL
T2 sequence (P51582 whole entry): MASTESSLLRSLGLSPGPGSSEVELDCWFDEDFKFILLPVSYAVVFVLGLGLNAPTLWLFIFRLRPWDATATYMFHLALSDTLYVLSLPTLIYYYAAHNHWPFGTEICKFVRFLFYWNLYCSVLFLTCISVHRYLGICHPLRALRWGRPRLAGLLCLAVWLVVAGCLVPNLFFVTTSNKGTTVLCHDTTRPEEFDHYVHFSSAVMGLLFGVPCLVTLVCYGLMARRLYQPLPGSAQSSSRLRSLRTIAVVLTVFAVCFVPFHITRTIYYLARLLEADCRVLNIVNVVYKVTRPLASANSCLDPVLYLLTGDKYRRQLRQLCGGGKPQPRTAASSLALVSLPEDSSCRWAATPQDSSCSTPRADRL
Chain of P2Y purinoceptor 6 (Q15077 whole entry): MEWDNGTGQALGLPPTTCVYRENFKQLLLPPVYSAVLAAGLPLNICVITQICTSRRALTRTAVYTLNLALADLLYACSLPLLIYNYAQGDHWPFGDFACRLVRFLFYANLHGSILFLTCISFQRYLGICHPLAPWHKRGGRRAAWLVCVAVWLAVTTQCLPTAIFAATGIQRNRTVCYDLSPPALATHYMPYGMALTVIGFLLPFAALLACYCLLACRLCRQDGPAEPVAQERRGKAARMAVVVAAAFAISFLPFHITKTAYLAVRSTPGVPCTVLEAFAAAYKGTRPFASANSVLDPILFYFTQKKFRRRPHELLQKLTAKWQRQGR
Chain of P2Y purinoceptor 2 (P35383 whole entry): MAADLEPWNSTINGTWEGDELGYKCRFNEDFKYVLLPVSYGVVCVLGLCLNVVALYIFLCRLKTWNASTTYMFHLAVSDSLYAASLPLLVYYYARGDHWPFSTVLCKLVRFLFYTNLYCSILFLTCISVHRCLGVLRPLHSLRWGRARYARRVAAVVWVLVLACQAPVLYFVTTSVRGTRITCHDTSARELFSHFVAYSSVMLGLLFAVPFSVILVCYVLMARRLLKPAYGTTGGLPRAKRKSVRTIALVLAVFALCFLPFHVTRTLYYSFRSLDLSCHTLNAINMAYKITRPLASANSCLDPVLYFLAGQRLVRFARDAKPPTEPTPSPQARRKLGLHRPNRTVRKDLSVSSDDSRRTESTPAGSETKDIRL
Chain of P2Y purinoceptor 4 (Rattus norvegicus, UniProt O35811) (O35811 whole entry): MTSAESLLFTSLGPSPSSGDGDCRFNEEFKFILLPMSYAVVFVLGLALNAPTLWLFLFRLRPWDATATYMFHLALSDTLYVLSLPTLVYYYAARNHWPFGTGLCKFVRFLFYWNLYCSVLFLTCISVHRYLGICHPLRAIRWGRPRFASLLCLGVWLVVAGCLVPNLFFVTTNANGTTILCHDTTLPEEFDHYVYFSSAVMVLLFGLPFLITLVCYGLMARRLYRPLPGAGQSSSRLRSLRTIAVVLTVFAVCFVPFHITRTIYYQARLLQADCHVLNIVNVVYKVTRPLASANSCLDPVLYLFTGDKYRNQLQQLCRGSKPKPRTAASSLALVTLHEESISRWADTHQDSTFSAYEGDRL
Chain of P2Y purinoceptor 4 (Rattus norvegicus) (O35811 whole entry): as above

With CC(C)(C)c1ccccc1Oc1ncccc1NC(=O)Nc1ccc(OC(F)(F)F)cc1 the half-life [1] was 15.4 h, the CL/F [2] was 13 mL/min/kg and the half-life [3] was 1.4 h. It also gave a Vdss [4] of 0.8 L/kg.
O=C(O)c1cc(-c2ccc(C3CCNCC3)cc2)c2ccc(-c3ccc(C(F)(F)F)cc3)cc2c1 [PPTN] showed a Cmax [5] of 680 nM, a Cmax [6] of 2280 nM and a bioavailability [7] of 5%. The bioavailability (in vivo) was 5% and the Ki [8] was 1.9 nM.
Work on Cc1ccc2c(c1)C=Cc1cc(C)ccc1C2c1cn(Cc2ccc(C(=O)Nc3nnn[nH]3)o2)c(=O)[nH]c1=S yielded an IC50 [9] of 1000 nM.
With Cc1cc(Oc2ccccc2NC(=O)Nc2ccc(C3CCS(=O)(=O)CC3)cc2)n(-c2ccccc2Cl)n1 the Ki (P2Y purinoceptor 1 [10]) was over 10000 nM.
For COc1ccc(-c2cc(=O)c3c(OC)c(OC)c(OC)c(OC)c3o2)cc1 [TANGERETIN], the IC50 (P2Y purinoceptor 2) was 12000 nM.
In the case of O=C(O)c1cc(-c2ccccc2)c2ccc(OCc3ccccc3)cc2c1, the IC50 [11] is reported as 3500 nM.
Work on Cc1cc(F)cc(C)c1COc1ccc2c(-c3ccsc3)cc(C(=O)O)cc2c1 yielded a half-life [12] of 2.7 h, a half-life [13] of 2.7 h and a bioavailability [14] of 12%.
Nc1ncnc2c1ncn2[C@H]1C[C@H](OP(=O)(O)O)[C@@H](COP(=O)(O)O)O1 showed an EC50 (P2Y purinoceptor 1 [15]) of 6300 nM and an IC50 (P2Y purinoceptor 1 [15]) of 5800 nM.
For CNc1ncnc2c1ncn2[C@H]1C[C@H](OP(=O)(O)O)[C@@H](COP(=O)(O)O)O1, the IC50 (P2Y purinoceptor 1 [16]) was 330 nM.
Compound S=C=Nc1cccc(NC(=S)NCCCCNC(=S)Nc2cccc(N=C=S)c2)c1 has an IC50 (P2Y purinoceptor 6) of 37 nM.
Cc1cc(Oc2ccccc2NC(=O)Nc2ccc(OC(F)(F)F)cc2)n(-c2ccccc2Cl)n1 gave a clearance [17] of 81 mL/min/kg and a Vdss [18] of 15.7 L/kg.
Compound CNc1nc(Cl)nc2c1ncn2CCC(COP(=O)(O)O)COP(=O)(O)O has an IC50 (P2Y purinoceptor 1 [15]) of 840 nM.
O=c1ccn([C@@H]2O[C@H](COP(=O)(O)OP(=O)(O)OP(=O)(O)O)[C@@H](O)[C@H]2O)c(=O)[nH]1 [URIDINE TRIPHOSPHATE] showed an EC50 (P2Y purinoceptor 4 [19]) of 550 nM.
Work on CCCSc1nc(N[C@@H]2C[C@H]2c2ccccc2)c2nnn([C@@H]3C[C@H](c4nnn[nH]4)[C@@H](O)[C@H]3O)c2n1 yielded a Ki (P2Y purinoceptor 12 [20]) of 2 nM.
With Nc1c(S(=O)(=O)O)cc(Nc2ccc(Nc3nc(Cl)nc(Nc4cccc(S(=O)(=O)O)c4)n3)c(S(=O)(=O)O)c2)c2c1C(=O)c1ccccc1C2=O [RB 2] the IC50 (P2Y purinoceptor 13 [21]) was 1900 nM.
Nc1ncnc2c1ncn2[C@@H]1O[C@H](COP(=O)(O)OP(=O)(O)OP(=O)(O)O)[C@@H](O)[C@H]1O [ADENOSINE TRIPHOSPHATE] showed an EC50 (P2Y purinoceptor 4 [22]) of 6200 nM and an EC50 (P2Y purinoceptor 4 [23]) of 1170 nM.
In the case of Cc1nc(/N=N/c2ccc(Cl)c([N+](=O)[O-])c2)c(COP(=O)(O)O)c(C=O)c1O, the IC50 (P2Y purinoceptor 13 [24]) is reported as 661 nM.
S=C=Nc1ccc(CCc2ccc(N=C=S)cc2)cc1 showed an IC50 (P2Y purinoceptor 6) of 100 nM.
For CCOC(=O)N1CCN(C(=O)[C@H](CCC(=O)O)NC(=O)c2cc(OC(C)(C)C(=O)O)c3ccc(C)cc3n2)CC1, the IC50 (P2Y purinoceptor 12 [25]) was 8.3 nM.
In the case of Nc1ncnc2c1ncn2[C@@H]1O[C@H](COP(=O)(O)OP(=O)(O)O)[C@@H](O)[C@H]1O, the Activity [26] is reported as 34% and the Activity (P2Y purinoceptor 4 [27]) is reported as 15%.
Work on CCc1ccccc1-n1nc(C)cc1Oc1ccccc1NC(=O)Nc1ccc(OC(F)(F)F)cc1 yielded a Ki (P2Y purinoceptor 1 [10]) of 70 nM.
With CCCCNc1nc(SCCC)nc2c1nnn2[C@@H]1C[C@H](/C=C/C(=O)N[C@@H](CC(=O)O)C(=O)O)[C@@H](O)[C@H]1O the pIC50 [28] was 9.3.
In the case of CC(=O)c1cc(C(=O)NCCCCCCn2cc(CCCCN3CCC(c4ccc(-c5cc(C(=O)O)cc6cc(-c7ccc(C(F)(F)F)cc7)ccc56)cc4)CC3)nn2)ccc1-c1c2ccc(=N)c(S(=O)(=O)O)c-2oc2c(S(=O)(=O)O)c(N)ccc12, the Ki (P2Y purinoceptor 14 [29]) is reported as 0.08 nM.
CCCCNc1nc(SCCC)nc2c1ncn2[C@@H]1O[C@H](/C=C/C(=O)N[C@@H](CC(=O)O)C(=O)O)[C@@H](O)[C@H]1O showed a pIC50 [28] of 7.
Compound CCCCNc1nc(SCCC)nc2c1nnn2[C@@H]1O[C@H](/C=C/C(=O)N[C@@H](CC(=O)O)C(=O)O)[C@@H](O)[C@H]1O has a pIC50 [28] of 9.5.
With Cc1nc(/N=N/c2cc([N+](=O)[O-])ccc2Cl)c(COP(=O)(O)O)c(C=O)c1O the IC50 (P2Y purinoceptor 13 [24]) was 1070 nM.
Work on Cc1ccc(C(=O)Nc2ccc(S(=O)(=O)O)c3cc(S(=O)(=O)O)cc(S(=O)(=O)O)c23)cc1NC(=O)c1cccc(NC(=O)Nc2cccc(C(=O)Nc3cc(C(=O)Nc4ccc(S(=O)(=O)O)c5cc(S(=O)(=O)O)cc(S(=O)(=O)O)c45)ccc3C)c2)c1 [SURAMIN HEXASODIUM] yielded an IC50 (P2Y purinoceptor 13 [21]) of 2300 nM.
With CCOC(=O)N1CCN(C(=O)[C@H](CCC(=O)O)NC(=O)c2cc(OC(C)(C)C(=O)OCC)c3ccc(C)cc3n2)CC1 the IC50 (P2Y purinoceptor 12 [25]) was 130 nM.
Work on O=c1ccn([C@@H]2O[C@H](COP(=O)(O)OP(=O)(O)O)[C@@H](O)[C@H]2O)c(=O)[nH]1 [URIDINE_DIPHOSPHATE] yielded an EC50 (P2Y purinoceptor 14 [30]) of 350 nM.
CC(C)(C)CN1CCC2(CC1)CN(c1ccccc1NC(=O)Nc1nc3ccc(Cl)nc3s1)c1c(O)cc(F)c(-c3ccc(F)cc3)c12 gave an IC50 [31] of 180 nM, a bioavailability [7] of 30% and a clearance [17] of 4 mL/min/kg. For the same compound, the Vd ([18]; read-out: Vdss) was 2.1 L/kg.
Compound Cc1nc(/N=N/c2ccc(S(=O)(=O)O)cc2S(=O)(=O)O)c(COP(=O)(O)O)c(C=O)c1O has an IC50 (P2Y purinoceptor 13 [21]) of 11600 nM.
